In patent US9493440B2, “Compounds inhibiting leucine-rich repeat kinase enzyme activity” (Merck Sharp & Dohme Corp., priority 2013, dated 2016):

Legend:
Format in all cases: biochemical
Settings in all cases: 1 μM of the Example
DYRK1A = DYRK1A (Homo sapiens (Human), UniProt Q13627); assay: Kinase selectivity, Z'-LYTE assay platform
BRAF V599E = BRAF V599E (Homo sapiens (Human), UniProt P15056, V600E); assay: Kinase selectivity, Z'-LYTE assay platform
MAPK1 (ERK2) = MAPK1 (ERK2) (Homo sapiens (Human), UniProt P28482); assay: Kinase selectivity, Z'-LYTE assay platform
CLK2 = CLK2 (Homo sapiens (Human), UniProt P49760); assay: Kinase selectivity, Z'-LYTE assay platform
CHEK2 (CHK2) = CHEK2 (CHK2) (Homo sapiens (Human), UniProt O96017); assay: Kinase selectivity, Z'-LYTE assay platform
IRAK1 = IRAK1 (Homo sapiens (Human), UniProt P51617); assay: Kinase selectivity, Adapta assay platform
AURKB (Aurora B) = AURKB (Aurora B) (Homo sapiens (Human), UniProt Q96GD4); assay: Kinase selectivity, Z'-LYTE assay platform
MAPK8 (JNK1) = MAPK8 (JNK1) (Homo sapiens (Human), UniProt P45983); assay: Kinase selectivity, Z'-LYTE assay platform
JAK3 = JAK3 (Homo sapiens (Human), UniProt P52333); assay: Kinase selectivity, Z'-LYTE assay platform
CDK1/cyclin B = CDK1/cyclin B (Homo sapiens (Human), UniProt P06493); assay: Kinase selectivity, Z'-LYTE assay platform
Sequence of CDK1/cyclin B (P06493 whole entry): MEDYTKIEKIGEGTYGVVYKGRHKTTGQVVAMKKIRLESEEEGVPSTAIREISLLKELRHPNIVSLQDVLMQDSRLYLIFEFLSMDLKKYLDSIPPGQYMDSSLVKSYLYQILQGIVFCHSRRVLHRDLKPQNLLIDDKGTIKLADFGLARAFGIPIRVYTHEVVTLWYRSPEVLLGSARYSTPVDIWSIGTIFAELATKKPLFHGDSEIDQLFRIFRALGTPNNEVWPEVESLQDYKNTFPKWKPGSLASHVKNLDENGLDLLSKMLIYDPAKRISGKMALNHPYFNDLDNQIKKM
Sequence of CDK1/cyclin B (P14635 whole entry partner): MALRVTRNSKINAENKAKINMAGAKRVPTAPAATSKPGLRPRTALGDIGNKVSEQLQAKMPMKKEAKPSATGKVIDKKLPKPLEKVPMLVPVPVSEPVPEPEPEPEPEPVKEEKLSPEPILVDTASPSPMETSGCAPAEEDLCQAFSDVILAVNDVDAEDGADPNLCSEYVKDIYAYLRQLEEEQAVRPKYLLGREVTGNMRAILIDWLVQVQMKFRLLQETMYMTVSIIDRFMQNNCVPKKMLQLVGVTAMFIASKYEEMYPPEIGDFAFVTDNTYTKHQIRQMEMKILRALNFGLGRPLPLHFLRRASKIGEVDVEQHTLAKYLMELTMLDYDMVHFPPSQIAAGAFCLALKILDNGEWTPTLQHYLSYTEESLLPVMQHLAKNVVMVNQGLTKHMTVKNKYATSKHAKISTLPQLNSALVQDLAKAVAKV

Sequence of AURKB (Aurora B) (Q96GD4 whole entry): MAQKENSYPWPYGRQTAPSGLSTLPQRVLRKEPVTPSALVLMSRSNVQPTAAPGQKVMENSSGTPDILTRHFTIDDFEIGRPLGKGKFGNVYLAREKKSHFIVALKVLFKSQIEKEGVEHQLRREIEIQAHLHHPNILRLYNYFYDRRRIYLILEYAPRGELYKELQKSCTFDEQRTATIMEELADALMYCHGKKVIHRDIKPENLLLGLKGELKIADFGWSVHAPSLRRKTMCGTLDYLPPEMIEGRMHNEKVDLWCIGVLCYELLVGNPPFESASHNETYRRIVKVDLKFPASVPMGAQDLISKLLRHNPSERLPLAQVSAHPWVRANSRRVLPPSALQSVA
Sequence of MAPK1 (ERK2) (P28482 whole entry): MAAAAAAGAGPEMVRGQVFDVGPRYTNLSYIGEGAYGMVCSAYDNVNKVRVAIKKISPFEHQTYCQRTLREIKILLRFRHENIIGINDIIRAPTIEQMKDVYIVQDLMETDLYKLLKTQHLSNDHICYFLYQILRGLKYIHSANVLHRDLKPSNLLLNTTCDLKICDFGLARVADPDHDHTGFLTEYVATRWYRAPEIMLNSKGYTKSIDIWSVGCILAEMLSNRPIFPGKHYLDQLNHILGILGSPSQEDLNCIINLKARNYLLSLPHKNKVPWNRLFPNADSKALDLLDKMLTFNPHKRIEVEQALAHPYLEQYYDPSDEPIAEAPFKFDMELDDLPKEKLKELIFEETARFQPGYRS
Sequence of CHEK2 (CHK2) (O96017 whole entry): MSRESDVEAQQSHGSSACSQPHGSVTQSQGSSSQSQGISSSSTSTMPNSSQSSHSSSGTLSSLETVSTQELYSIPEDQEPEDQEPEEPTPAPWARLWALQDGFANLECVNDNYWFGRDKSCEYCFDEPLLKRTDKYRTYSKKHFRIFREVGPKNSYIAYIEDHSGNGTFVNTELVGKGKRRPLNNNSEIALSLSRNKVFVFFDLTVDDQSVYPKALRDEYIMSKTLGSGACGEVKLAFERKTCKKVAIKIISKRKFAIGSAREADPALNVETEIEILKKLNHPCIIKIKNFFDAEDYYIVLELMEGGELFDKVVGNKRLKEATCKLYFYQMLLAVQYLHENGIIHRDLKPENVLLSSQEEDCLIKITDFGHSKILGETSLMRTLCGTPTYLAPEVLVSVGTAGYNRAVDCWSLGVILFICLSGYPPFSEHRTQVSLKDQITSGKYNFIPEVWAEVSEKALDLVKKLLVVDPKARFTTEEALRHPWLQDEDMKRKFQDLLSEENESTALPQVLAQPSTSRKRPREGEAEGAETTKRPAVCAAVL
Sequence of BRAF V599E (P15056 416-766 V600E limits assumed): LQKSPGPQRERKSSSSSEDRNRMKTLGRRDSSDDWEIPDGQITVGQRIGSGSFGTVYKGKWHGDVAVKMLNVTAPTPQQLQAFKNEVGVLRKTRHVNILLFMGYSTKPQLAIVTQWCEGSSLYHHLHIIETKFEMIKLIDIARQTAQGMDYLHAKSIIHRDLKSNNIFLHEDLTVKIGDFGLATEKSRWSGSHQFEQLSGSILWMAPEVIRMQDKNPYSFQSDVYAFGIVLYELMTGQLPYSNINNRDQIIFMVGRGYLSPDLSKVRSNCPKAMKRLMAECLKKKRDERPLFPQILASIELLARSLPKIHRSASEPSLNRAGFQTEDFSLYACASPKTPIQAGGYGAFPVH
Sequence of JAK3 (P52333 whole entry): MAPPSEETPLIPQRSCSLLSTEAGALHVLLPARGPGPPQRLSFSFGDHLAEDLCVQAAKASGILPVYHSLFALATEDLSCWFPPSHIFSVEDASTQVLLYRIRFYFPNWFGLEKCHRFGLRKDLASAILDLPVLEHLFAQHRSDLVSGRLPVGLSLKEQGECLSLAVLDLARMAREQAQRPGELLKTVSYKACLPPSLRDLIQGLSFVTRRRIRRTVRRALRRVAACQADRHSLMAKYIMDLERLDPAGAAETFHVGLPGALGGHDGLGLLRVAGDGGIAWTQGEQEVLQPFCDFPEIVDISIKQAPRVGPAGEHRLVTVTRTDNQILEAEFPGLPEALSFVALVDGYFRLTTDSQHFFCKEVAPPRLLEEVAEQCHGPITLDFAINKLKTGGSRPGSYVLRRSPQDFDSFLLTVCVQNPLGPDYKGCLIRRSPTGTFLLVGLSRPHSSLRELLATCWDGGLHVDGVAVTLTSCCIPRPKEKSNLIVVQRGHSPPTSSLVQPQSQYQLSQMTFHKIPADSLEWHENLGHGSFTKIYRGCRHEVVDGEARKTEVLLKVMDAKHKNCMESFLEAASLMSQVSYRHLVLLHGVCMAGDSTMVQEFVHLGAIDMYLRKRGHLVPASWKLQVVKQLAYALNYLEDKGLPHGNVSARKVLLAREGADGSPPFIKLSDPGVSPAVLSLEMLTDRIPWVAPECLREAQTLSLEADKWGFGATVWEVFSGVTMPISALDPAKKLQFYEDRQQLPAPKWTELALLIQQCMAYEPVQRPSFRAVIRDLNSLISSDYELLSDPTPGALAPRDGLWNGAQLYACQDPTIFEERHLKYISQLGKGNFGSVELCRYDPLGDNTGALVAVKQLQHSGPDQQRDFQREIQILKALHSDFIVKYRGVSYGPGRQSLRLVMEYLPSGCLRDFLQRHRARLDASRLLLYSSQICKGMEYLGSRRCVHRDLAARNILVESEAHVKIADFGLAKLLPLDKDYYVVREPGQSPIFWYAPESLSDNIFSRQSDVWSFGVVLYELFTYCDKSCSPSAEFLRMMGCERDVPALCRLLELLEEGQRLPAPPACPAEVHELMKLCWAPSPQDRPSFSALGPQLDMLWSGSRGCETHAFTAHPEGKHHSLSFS
Sequence of MAPK8 (JNK1) (P45983 whole entry): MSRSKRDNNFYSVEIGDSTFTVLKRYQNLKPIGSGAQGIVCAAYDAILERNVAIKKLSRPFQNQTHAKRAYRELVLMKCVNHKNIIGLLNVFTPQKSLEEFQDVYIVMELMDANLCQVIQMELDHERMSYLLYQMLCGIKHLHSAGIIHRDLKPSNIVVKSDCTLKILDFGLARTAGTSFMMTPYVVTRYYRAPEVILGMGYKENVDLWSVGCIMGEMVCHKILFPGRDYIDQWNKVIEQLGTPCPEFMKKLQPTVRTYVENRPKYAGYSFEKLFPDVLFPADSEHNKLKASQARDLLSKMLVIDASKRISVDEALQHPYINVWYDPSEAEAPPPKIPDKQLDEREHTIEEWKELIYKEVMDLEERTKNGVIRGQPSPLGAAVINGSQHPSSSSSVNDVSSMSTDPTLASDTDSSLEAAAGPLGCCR
Sequence of CLK2 (P49760 whole entry): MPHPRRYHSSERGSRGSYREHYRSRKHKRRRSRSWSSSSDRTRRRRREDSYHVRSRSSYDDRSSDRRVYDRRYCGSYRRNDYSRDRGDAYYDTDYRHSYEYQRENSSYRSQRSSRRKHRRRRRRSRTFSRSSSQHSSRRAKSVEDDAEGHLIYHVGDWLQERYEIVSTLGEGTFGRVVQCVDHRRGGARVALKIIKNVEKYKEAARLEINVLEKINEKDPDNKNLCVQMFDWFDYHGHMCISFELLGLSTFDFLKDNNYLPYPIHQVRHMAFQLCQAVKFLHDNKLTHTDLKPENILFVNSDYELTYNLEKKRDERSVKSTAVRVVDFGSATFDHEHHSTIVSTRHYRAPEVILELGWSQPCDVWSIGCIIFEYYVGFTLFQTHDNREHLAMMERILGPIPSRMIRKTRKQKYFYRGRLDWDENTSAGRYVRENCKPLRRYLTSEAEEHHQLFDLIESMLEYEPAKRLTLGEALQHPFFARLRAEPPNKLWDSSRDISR

Row | percent inhibition DYRK1A (DYRK1A) [%] | percent inhibition BRAF V599E (BRAF V599E) [%] | percent inhibition MAPK1 (ERK2) (MAPK1 (ERK2)) [%] | percent inhibition CLK2 (CLK2) [%] | percent inhibition CHEK2 (CHK2) (CHEK2 (CHK2)) [%] | percent inhibition IRAK1 (IRAK1) [%] | percent inhibition AURKB (Aurora B) (AURKB (Aurora B)) [%] | percent inhibition MAPK8 (JNK1) (MAPK8 (JNK1)) [%] | percent inhibition JAK3 (JAK3) [%] | percent inhibition CDK1/cyclin B (CDK1/cyclin B) [%] | SMILES
1 | 16 | 24 | 8 | 57 | 21 | 23 | 28 | 56 | 7 | 10 | CC1(Oc2ccc3[nH]nc(-c4cc(N5CCOCC5)ncn4)c3c2)CC1 [Example 1]
2 | 5 | 11 | 10 | 53 | 17 | 31 | 37 | 40 | 12 | 43 | CO[C@H]1CCN(c2cc(-c3n[nH]c4ccc(OC5(C)CC5)cc34)ncn2)C1 [Example 12]

Row | SMILES | percent inhibition DYRK1A (DYRK1A) [%] | percent inhibition BRAF V599E (BRAF V599E) [%] | percent inhibition MAPK1 (ERK2) (MAPK1 (ERK2)) [%] | percent inhibition CLK2 (CLK2) [%] | percent inhibition CHEK2 (CHK2) (CHEK2 (CHK2)) [%] | percent inhibition IRAK1 (IRAK1) [%] | percent inhibition AURKB (Aurora B) (AURKB (Aurora B)) [%] | percent inhibition MAPK8 (JNK1) (MAPK8 (JNK1)) [%] | percent inhibition JAK3 (JAK3) [%] | percent inhibition CDK1/cyclin B (CDK1/cyclin B) [%]
3 | C[C@@H]1CN(c2cc(-c3n[nH]c4ccc(OC5(C)CC5)cc34)ncn2)C[C@H](C)O1 [Example 51] | 4 | 10 | −4 | 55 | 15 | −15 | 16 | 0 | 7 | 1
